Structures are written as SMILES. Where “and” joins values, the source holds several entries; their conditions need not be identical. Equal entries are not always repeated.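 Interpolation was linear, between the two tested concentrations surrounding the appropriate level; five concentrations were tested over 48 hours in 96-well plates. The concentration for 50% growth inhibition is given as GI50. At the TGI there is no net growth.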 Some results are limits rather than exact numbers.

TGI and GI50 data for nine molecules are collected here from PubChem BioAssay (NCI).

Test systems include HCT-116 colon; CAKI-1 renal; SK-MEL-2 melanoma; OVCAR-5 ovarian; MDA-MB-435; SW-620 colon; HOP-62 NSCLC; MDA-MB-231 breast; KM12 colon; K-562 leukemia.
What all share (experiment): NCI-60 cell line screen, 48 h

Consider `CCCCCCCCCCCCCCCCOCC(O)CO` (centres undefined), for which the TGI in the assay with HCT-116 colon was 34.1 µM; with CAKI-1 renal, 35 µM; with SK-MEL-2 melanoma it was 40.1 µM; in the assay on OVCAR-5 ovarian, 52.2 µM; with MDA-MB-435 it was 33.4 µM; in the assay on SW-620 colon it was 41.2 µM. For the same molecule, the TGI was found to be 43 µM in the assay on HOP-62 NSCLC, 35.6 µM with MDA-MB-231 breast and 32.1 µM in the assay on KM12 colon.

Turning to `Cn1cc(NC(=O)Nc2cc(C(=O)Nc3cc(C(=O)Nc4cc(S(=O)(=O)O)c5cc(S(=O)(=O)O)cc(S(=O)(=O)O)c5c4)n(C)c3)n(C)c2)cc1C(=O)Nc1cc(C(=O)Nc2cc(S(=O)(=O)O)c3cc(S(=O)(=O)O)cc(S(=O)(=O)O)c3c2)n(C)c1`, the TGI in the assay with HCT-116 colon, in the assay with OVCAR-5 ovarian, in the assay on MDA-MB-435, in the assay on SW-620 colon, with HOP-62 NSCLC and in the assay with K-562 leukemia was greater than 100 µM in each case. Also, the TGI in the assay with MDA-MB-231 breast and with KM12 colon was greater than 100 µM throughout.

Take `Cn1cc(-c2nc(N[C@@H]3CCCC[C@@H]3N)c(F)c3c2C(=O)NC3)cn1`: the GI50 in the assay on HCT-116 colon is 3.66 µM and 4.67 µM; in the assay with SK-MEL-2 melanoma, 20.5 µM and 24.9 µM; in the assay on OVCAR-5 ovarian it was 7.14 µM and 8.43 µM; with MDA-MB-435, 5.64 µM and 7.4 µM; in the assay with SW-620 colon, 4.26 µM and 5 µM; in the assay with HOP-62 NSCLC, 3.37 µM and 3.32 µM. Further, the GI50 in the assay with K-562 leukemia is 6.83 µM and 6.77 µM; with MDA-MB-231 breast, 5.04 µM and 6.15 µM; in the assay on KM12 colon, 0.458 µM and 0.452 µM. The TGI with HCT-116 colon was 47.7 µM and > 83.3 µM; with SK-MEL-2 melanoma, greater than 100 µM; with OVCAR-5 ovarian, greater than 100 µM; in the assay with MDA-MB-435 it was greater than 100 µM; in the assay with SW-620 colon it was greater than 100 µM; in the assay on HOP-62 NSCLC, 29.7 µM and 30.5 µM. The TGI in the assay with K-562 leukemia was greater than 100 µM; with MDA-MB-231 breast, 26.2 µM and 31.9 µM; with KM12 colon, greater than 100 µM.

In the case of `NNC(=O)C(O)C(O)C(=O)NN` (centres undefined), the TGI with HCT-116 colon, with CAKI-1 renal, with SK-MEL-2 melanoma, in the assay on OVCAR-5 ovarian, in the assay with MDA-MB-435 and in the assay with SW-620 colon was greater than 100 µM in each case. For the same molecule, the TGI with HOP-62 NSCLC, with K-562 leukemia, in the assay on MDA-MB-231 breast and with KM12 colon was greater than 100 µM each time.

With `COc1cc(Cn2c(-c3ccccc3)cc3c2-c2oncc2CC3)cc(OC)c1`, the GI50 with HCT-116 colon was 0.354 µM; with CAKI-1 renal, 0.354 µM; with SK-MEL-2 melanoma, 81.2 µM; in the assay on OVCAR-5 ovarian, 0.551 µM; with MDA-MB-435, 0.0815 µM; with SW-620 colon it was 0.36 µM. For the same molecule, the GI50 is 0.521 µM with HOP-62 NSCLC, 0.201 µM in the assay on K-562 leukemia, 0.694 µM in the assay with MDA-MB-231 breast and 0.313 µM in the assay with KM12 colon. Besides, the TGI in the assay with HCT-116 colon was greater than 46.8 µM; with CAKI-1 renal, greater than 100 µM; with SK-MEL-2 melanoma it was greater than 100 µM; in the assay on OVCAR-5 ovarian, greater than 100 µM; in the assay on MDA-MB-435, 0.34 µM; in the assay with SW-620 colon it was greater than 100 µM. For the same molecule, the TGI in the assay with HOP-62 NSCLC is greater than 100 µM; in the assay with K-562 leukemia, greater than 100 µM; in the assay on MDA-MB-231 breast it was greater than 24.2 µM; in the assay with KM12 colon, 9.76 µM.

Regarding `COc1ccc(C(=O)c2cc3c(N)c(C(=O)Nc4cccc(OC)c4)sc3nc2C)cc1`, the GI50 in the assay on HCT-116 colon was 0.368 µM; with CAKI-1 renal it was 0.694 µM; in the assay with SK-MEL-2 melanoma it was greater than 100 µM; in the assay with OVCAR-5 ovarian it was 1.54 µM; in the assay with SW-620 colon it was 0.446 µM; with K-562 leukemia it was 0.378 µM. The GI50 in the assay with MDA-MB-231 breast was 1.47 µM; in the assay on KM12 colon, 0.568 µM. The TGI in the assay with HCT-116 colon, in the assay on CAKI-1 renal, in the assay with SK-MEL-2 melanoma, in the assay on OVCAR-5 ovarian, in the assay on SW-620 colon and in the assay with HOP-62 NSCLC was greater than 100 µM each time. The TGI with K-562 leukemia, in the assay with MDA-MB-231 breast and in the assay with KM12 colon was greater than 100 µM throughout.

Consider `O=C(c1ccc2ccccc2c1)c1c(C(F)(F)F)n([O-])c2ccc(F)cc2[n+]1=O`, for which the GI50 in the assay on HCT-116 colon was 1.5 µM; with SK-MEL-2 melanoma, 1.2 µM; in the assay with OVCAR-5 ovarian, 1.78 µM; in the assay with SW-620 colon, 1.5 µM; with HOP-62 NSCLC it was 1.91 µM; in the assay on MDA-MB-231 breast, 1.48 µM. The GI50 in the assay on KM12 colon was 0.673 µM. Further, the TGI in the assay on HCT-116 colon amounted to 2.97 µM; with SK-MEL-2 melanoma, 2.82 µM; with OVCAR-5 ovarian it was 3.18 µM; in the assay on SW-620 colon, 3.2 µM; with HOP-62 NSCLC it was 3.39 µM; in the assay with MDA-MB-231 breast, 3.02 µM. Further, the TGI in the assay with KM12 colon amounted to 2.46 µM.

For `O=S(=O)(O)SCCNCCCCCC1CCCCC1`, the TGI in the assay on HCT-116 colon was 10.2 µM; in the assay on CAKI-1 renal, 35.4 µM; in the assay on SK-MEL-2 melanoma, 8.68 µM; with OVCAR-5 ovarian it was 23.8 µM; with MDA-MB-435 it was 18.5 µM; with SW-620 colon, 21.7 µM. In addition, the TGI in the assay with HOP-62 NSCLC was 17.9 µM; with K-562 leukemia, greater than 35.8 µM; in the assay with MDA-MB-231 breast, 30 µM; with KM12 colon, 7.76 µM.

`Cc1cc2nc3c4ccc(Br)cc4n(CCN(C)C)c3nc2cc1C`: the GI50 with HCT-116 colon was 0.451 µM; with CAKI-1 renal, 1.53 µM; with SK-MEL-2 melanoma it was 2 µM; in the assay with OVCAR-5 ovarian it was 1.99 µM; with MDA-MB-435, 1.68 µM; in the assay with SW-620 colon, 0.478 µM. The GI50 in the assay with HOP-62 NSCLC was 1.71 µM; in the assay with MDA-MB-231 breast it was 1.97 µM; in the assay on KM12 colon it was 1.54 µM. The TGI with HCT-116 colon was found to be 2.14 µM; with CAKI-1 renal it was 5.42 µM; in the assay with SK-MEL-2 melanoma it was 4.24 µM; in the assay on OVCAR-5 ovarian, 5.88 µM; in the assay on MDA-MB-435 it was 3.04 µM; in the assay with SW-620 colon, 1.84 µM. In addition, the TGI is 10.7 µM in the assay with HOP-62 NSCLC, 7.45 µM with MDA-MB-231 breast and 4.66 µM in the assay with KM12 colon.
